This note sets out measurements from patent publication US7713994B2 (Wyeth LLC, priority 2005, dated 2010).

The target of assay [1] is T1, cyclin D1/cdk 4 enzyme (Homo sapiens, UniProt P11802).
T1 construct: made in house; host or cells: Sf9 insect cells, recombinant baculovirus
In words: CDK4 ELISA kinase assay (phospho-Rb ser 795 detection). The format is biochemical. In short, it runs like this:
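ELISA format: plate-bound GST-Rb, 200 μM ATP, Sf9 cyclin/CDK enzyme, 1 h at 30° C; then anti-pRb Ser795 primary overnight at 4° C, HRP secondary, TMB. IC50 after no-substrate background subtraction.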

Assay [2] concerns the target T2, cyclin E/CDK2 enzyme (Homo sapiens, UniProt P24941).
T2 construct: made in house; host or cells: Sf9 insect cells, recombinant baculovirus
The assay is described as follows: CDK2 ELISA kinase assay (phospho-Rb ser 795 detection). The format is biochemical. On the procedure: (§1) • 1. High-binding ELISA microtiter plates (Costar) were coated with 40 μl of the kinase substrate (GST fusion of C-terminal fragment of the retinoblastoma susceptibility gene product) diluted to 10 μg/ml in tris-buffered saline (TBS), overnight at 4° C. • 2. Non-specific binding sites were blocked for 1 hour at 4° C. with Superblock in TBS (Pierce), and the plates rinsed with water. • 3. For the screen, 1.5 μl of test compound (200 μg/ml stock in 20% DMSO/20 mM HEPES, pH 7.5) was added to each well. Final dose of the test compound in the assay was 10 ug/ml. […] The kinase reaction (30 μl) was dispensed into each well. Reactions contained 200 μM ATP, 0.5 mg/ml bovine serum albumin (BSA; Sigma), and 0.5 μl partially purified cyclin D1/cdk 4 enzyme*. The enzyme complex is expressed in insect cells (Sf9) infected with recombinant baculovirus and partially purified using ammonium sulfate fractionation. Reaction volumes were adjusted to 30 μl with kinase assay buffer (50 mM HEPES, pH 7.5, 10 mM MgCl2, 5% glycerol, 10 mM 2-mercaptoethanol). • *: For CDK2 assay, 1.0 μl cyclin E/CDK2 enzyme (diluted 1:1000 in kinase assay buffer) was used. The enzyme is isolated from insect cells (Sf9) infected with recombinant baculovirus and partially purified using ammonium sulfate fractionation. For CDK1 assay, 0.08 μl cyclin B/CDK1 enzyme [New England BioLabs; the enzyme is isolated from insect cells (Sf9) infected with recombinant baculovirus carrying human cdc 2 and human cyclin B] was used.
(§2) […] • 5. Plates were incubated at 30° C. for 1 hour. • 6. The reaction mixture was removed by aspiration and replaced with 250 μl TBS containing 0.1% Tween-20 and 5% nonfat dry milk (blocking buffer). The plates were incubated at 4° C. for 1 hour. • 7. The blocking buffer was removed and replaced with 50 μl of the primary antibody [anti-phospho-Rb ser 795 (New England BioLabs) diluted 1:1000 in blocking buffer]. Incubation was at 4° C. for 16-20 hours. • 8. The wells were rinsed 3 times with 250 μl of TBS containing 0.1% Tween-20 followed by the addition of 50 μl of secondary antibody [anti-rabbit IgG conjugated to horseradish peroxidase (Amersham Life Science) diluted 1:1000 in blocking buffer]. • 9. After a 1 hour incubation at room temperature, the wells were rinsed 3 times with 250 μl of TBS/0.1% Tween 20. • 10. TMB (3,3′,5,5′-tetramethylbenzidine dihydrochloride) substrate solution (100 μl; Pierce) was added to each well and the color development reaction allowed to proceed 5-10 minutes at room temperature with shaking. The reaction was stopped by the addition of 2N sulfuric acid (100 μl) and the absorbance values read at 450 nm in a microplate reader (Molecular Devices). Analysis of Results: • 1. The percentage of the absorbance value in wells containing the test compound relative to control wells (no test agent) was determined. • 2. IC50 values of selected compounds were determined from inhibition curves, after subtracting background values (no substrate).

Assay [3] deals with T3, cyclin B/CDK1 enzyme (Homo sapiens, UniProt P06493).
T3 construct: purchased New England BioLabs; host or cells: Sf9 insect cells, recombinant baculovirus
The assay is described as follows: CDK1 ELISA kinase assay (phospho-Rb ser 795 detection). The format is biochemical. As to the method: as §1, §2

Assay [4] concerns BT474. In words: Cytotoxicity assay (SRB), BT474. Format: cell-based. The settings on record: Homo sapiens, BT-474, 144 h, BT474 cells, 6 days, SRB; read-out: In Vitro Cellular Activity IC50 BT474. The gist of the method:
(§3)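 Growth inhibition, SRB method: 3-day continuous compound exposure for HCT-116, LoVo and MCF-7 and 6-day exposure for BT474. Absorbance at 540 nm reflects surviving cell protein relative to controls.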

Assay [5] has as its system HCT-116. The assay is described as follows: Cytotoxicity assay (SRB), HCT-116. Format: cell-based. The settings on record: Homo sapiens, HCT-116, 72 h, HCT116 cells, 3 days, SRB; read-out: In Vitro Cellular Activity IC50 HCT116. The gist of the method:
as §3

Assay [6] relates to LoVo. The assay is described as follows: Cytotoxicity assay (SRB), LoVo. The format is cell-based. The settings on record: Homo sapiens, LoVo, 72 h, LoVo cells, 3 days, SRB; read-out: In Vitro Cellular Activity IC50 LOVO. In short, it runs like this: as §3
The test system of assay [7] is MCF-7. The assay is described as follows: Cytotoxicity assay (SRB), MCF-7. Format: cell-based. Particulars: Homo sapiens, MCF7, 72 h, MCF-7 cells, 3 days, SRB; read-out: In Vitro Cellular Activity IC50 MCF-7. In short, it runs like this:
as §3

[8] abbreviates: In Vitro Enzyme Assays, 200 μM ATP, read-out: CDK4 IC50.
Setting [9] is: In Vitro Enzyme Assays, read-out: CDK2 IC50.
The mark [10] stands for this setting: In Vitro Enzyme Assays, read-out: CDK1 IC50.
Where [11] appears, read: In Vitro Enzyme Assay, cyclin D1/cdk 4, read-out: CDK4 IC50.
Setting [12] is: In Vitro Enzyme Assay, cyclin E/CDK2, read-out: CDK2 IC50.
Where [13] appears, read: In Vitro Enzyme Assay, cyclin B/CDK1, read-out: CDK1 IC50.

Read-outs that look alike come from different tables or passages of the source. Where only a bound is given, the exact number is not on record here.

T3 sequence (P06493 whole entry): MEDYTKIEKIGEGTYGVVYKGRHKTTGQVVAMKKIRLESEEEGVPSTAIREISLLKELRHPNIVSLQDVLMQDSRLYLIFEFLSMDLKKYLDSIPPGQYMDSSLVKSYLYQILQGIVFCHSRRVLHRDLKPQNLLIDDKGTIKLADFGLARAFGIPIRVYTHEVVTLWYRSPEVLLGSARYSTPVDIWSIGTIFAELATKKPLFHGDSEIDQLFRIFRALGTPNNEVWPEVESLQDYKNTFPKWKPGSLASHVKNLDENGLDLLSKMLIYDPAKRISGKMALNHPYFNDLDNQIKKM
T3 sequence (P14635 whole entry partner): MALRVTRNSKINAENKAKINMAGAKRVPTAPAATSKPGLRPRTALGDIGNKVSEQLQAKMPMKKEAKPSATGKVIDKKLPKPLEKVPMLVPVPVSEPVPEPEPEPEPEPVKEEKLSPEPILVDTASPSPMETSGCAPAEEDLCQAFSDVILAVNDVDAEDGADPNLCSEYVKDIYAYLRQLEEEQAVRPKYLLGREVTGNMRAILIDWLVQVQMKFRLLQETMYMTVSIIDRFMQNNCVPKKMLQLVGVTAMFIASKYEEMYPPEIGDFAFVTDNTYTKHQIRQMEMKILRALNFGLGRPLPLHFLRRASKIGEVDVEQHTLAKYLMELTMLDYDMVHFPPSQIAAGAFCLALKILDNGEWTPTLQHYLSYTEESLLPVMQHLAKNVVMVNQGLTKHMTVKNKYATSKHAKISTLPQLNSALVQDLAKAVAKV
T1 sequence (P11802 whole entry, species assumed): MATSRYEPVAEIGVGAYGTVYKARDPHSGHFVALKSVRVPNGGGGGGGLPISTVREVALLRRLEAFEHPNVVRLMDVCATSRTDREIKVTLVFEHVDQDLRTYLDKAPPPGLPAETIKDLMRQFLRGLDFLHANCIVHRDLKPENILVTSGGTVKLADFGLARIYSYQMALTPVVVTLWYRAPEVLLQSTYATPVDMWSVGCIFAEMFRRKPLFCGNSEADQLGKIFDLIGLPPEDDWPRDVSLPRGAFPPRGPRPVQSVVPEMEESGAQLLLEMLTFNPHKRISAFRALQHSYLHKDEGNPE
T1 sequence (P24385 whole entry partner, species assumed): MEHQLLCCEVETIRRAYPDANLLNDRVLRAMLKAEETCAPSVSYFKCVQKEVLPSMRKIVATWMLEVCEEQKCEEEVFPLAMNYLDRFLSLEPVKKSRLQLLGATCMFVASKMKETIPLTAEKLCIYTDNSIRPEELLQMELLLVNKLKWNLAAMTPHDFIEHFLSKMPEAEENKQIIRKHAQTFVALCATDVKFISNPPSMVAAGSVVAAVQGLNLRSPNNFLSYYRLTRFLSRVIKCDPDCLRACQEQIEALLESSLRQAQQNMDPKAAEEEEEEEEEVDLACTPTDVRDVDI

With `O=C1NC(=O)c2ccc(Br)cc2/C1=C/NCc1ccc(O)c(O)c1` [Example 40, (4Z)-6-Bromo-4-{[(3,4-dihydroxybenzyl)amino]methylene}isoquinoline-1,3(2H,4H)-dione], the concentration for half-maximal inhibition (IC50) was 0.04 µM in assay [1] (setting [8]), over 50 µM in assay [2] (setting [9]) and over 50 µM in assay [3] (setting [10]).

On to `COc1ccc(CN/C=C2\C(=O)NC(=O)c3ccc(Cl)cc32)cc1O` [Example 67, (4Z)-6-Chloro-4-{[(3-hydroxy-4-methoxybenzyl)amino]methylene}isoquinoline-1,3(2H,4H)-dione], for which the concentration for half-maximal inhibition (IC50) in assay [1] (setting [8]) is 0.23 µM; in assay [2] (setting [9]), over 50 µM; in assay [3] (setting [10]), over 50 µM.

Turning to `Nc1cc(CN/C=C2\C(=O)NC(=O)c3ccc(Br)cc32)cc(O)c1O` [Example 204, (4Z)-4-{[(3-Amino-4,5-dihydroxybenzyl)amino]methylene}-6-bromoisoquinoline-1,3(2H,4H)-dione], the IC50 was 0.22 µM in assay [1] (setting [8]), 7 µM in assay [2] (setting [9]) and over 50 µM in assay [3] (setting [10]).

With `O=C1NC(=O)c2ccc(Br)cc2C1=CNc1ccc(-c2cccnc2)cc1` [Example 349, 6-Bromo-4-[(4-pyridin-3-yl-phenylamino)-methylene]-4H-isoquinoline-1,3-dione], the figures for the IC50 in assay [1] (setting [8]), in assay [2] (setting [9]) and in assay [3] (setting [10]) were 37.1 µM, 36.3 µM and over 50 µM, respectively.

For `CCCOc1ccc(CN/C=C2\C(=O)NC(=O)c3ccc(Br)cc32)cc1C(=O)O` [Example 352, 5-({[(Z)-(6-Bromo-1,3-dioxo-2,3-dihydroisoquinolin-4(1H)-ylidene)methyl]amino}methyl)-2-propoxybenzoic acid], the IC50 in assay [1] (setting [8]) worked out at 1.9 µM; in assay [2] (setting [9]) it was 12 µM; in assay [3] (setting [10]), 22.6 µM.

Regarding `N=C(N)c1ccc(NC=C2C(=O)NC(=O)c3ccccc32)cc1` [Example 547, 4-[(1,3-Dioxo-2,3-dihydro-1H-isoquinolin-4-ylidenemethyl)-amino]-benzamidine], the half-inhibitory concentration (IC50) in assay [1] (setting [11]) is 13.2 µM; in assay [2] (setting [12]) it was 6.6 µM; in assay [3] (setting [13]), over 50 µM.

As to `N#CCc1ccc(NC=C2C(=O)NC(=O)c3ccccc32)cc1` [Example 555, {4-[(1,3-Dioxo-2,3-dihydro-1H-isoquinolin-4-ylidenemethyl)-amino]-phenyl}-acetonitrile], the half-maximal inhibitory concentration (IC50) in assay [1] (setting [11]) was 14.7 µM; in assay [2] (setting [12]), 21.3 µM; in assay [3] (setting [13]) it was 45 µM.

Turning to `O=C1NC(=O)c2ccccc2C1=CNc1ccc(O)c(C(=O)O)c1` [Example 563, 5-[(1,3-Dioxo-2,3-dihydro-1H-isoquinolin-4-ylidenemethyl)-amino]-2-hydroxy-benzoic acid], the IC50 came out at 8.2 µM in assay [1] (setting [11]), 15.1 µM in assay [2] (setting [12]) and 18.5 µM in assay [3] (setting [13]).

For `O=C1NC(=O)c2ccccc2C1=CNCC(O)c1ccc(O)c(O)c1` (stereo not drawn) [Example 564, 4-{[2-(3,4-Dihydroxy-phenyl)-2-hydroxy-ethylamino]-methylene}-4H-isoquinoline-1,3-dione], the IC50 was found to be 12.8 µM in assay [1] (setting [11]), 13.8 µM in assay [2] (setting [12]) and 16.9 µM in assay [3] (setting [13]).

For the molecule `O=C1NC(=O)c2ccccc2C1=CNC(Cc1ccc(O)c(O)c1)C(=O)O` (stereo not drawn) [Example 567, 3-(3,4-Dihydroxy-phenyl)-2-[(1,3-dioxo-2,3-dihydro-1H-isoquinolin-4-ylidenemethyl)-amino]-propionic acid], the IC50 worked out at 11.9 µM in assay [1] (setting [11]), 16.2 µM in assay [2] (setting [12]) and 17.7 µM in assay [3] (setting [13]).

As for `NS(=O)(=O)c1ccc(CNC=C2C(=O)NC(=O)c3ccc(C=Cc4ccncc4)cc32)cc1` [Example 653, 4-({[1,3-Dioxo-6-(2-pyridin-4-yl-vinyl)-2,3-dihydro-1H-isoquinolin-4-ylidenemethyl]-amino}-methyl)-benzenesulfonamide], the 50% inhibitory concentration (IC50) in assay [1] (setting [11]) was 0.21 µM; in assay [2] (setting [12]), 45.5 µM; in assay [3] (setting [13]), over 50 µM.

Take `NS(=O)(=O)c1ccc(CNC=C2C(=O)NC(=O)c3ccc(C=Cn4ccnc4)cc32)cc1` [Example 658, 4-({[6-(2-Imidazol-1-yl-vinyl)-1,3-dioxo-2,3-dihydro-1H-isoquinolin-4-ylidenemethyl]-amino}-methyl)-benzenesulfonamide]: the IC50 in assay [1] (setting [11]) is 0.19 µM; in assay [2] (setting [12]), 23.1 µM; in assay [3] (setting [13]), over 50 µM.

Consider `O=C1NC(=O)c2ccc(C=Cc3ccncc3)cc2C1=CNCc1ccc(O)c(O)c1` [Example 663, 4-[(3,4-Dihydroxy-benzylamino)-methylene]-6-(2-pyridin-4-yl-vinyl)-4H-isoquinoline-1,3-dione], for which the concentration for half-maximal inhibition (IC50) in assay [1] (setting [11]) was 0.01 µM; in assay [2] (setting [12]), 6.3 µM; in assay [3] (setting [13]) it was over 50 µM.

Regarding `N#Cc1ccc(-c2ccc3c(c2)C(=CNCc2ccc(S(N)(=O)=O)cc2)C(=O)NC3=O)cc1` [Example 755, 4-({[6-(4-Cyano-phenyl)-1,3-dioxo-2,3-dihydro-1H-isoquinolin-4-ylidenemethyl]-amino}-methyl)-benzenesulfonamide], the IC50 came to 0.57 µM in assay [1] (setting [11]), 7.7 µM in assay [2] (setting [12]) and 12.3 µM in assay [3] (setting [13]).

As to `O=C1NC(=O)c2ccc(-c3ccc(C(=O)O)cc3)cc2C1=CNCc1ccc(O)c(O)c1` [Example 770, 4-{4-[(3,4-Dihydroxy-benzylamino)-methylene]-1,3-dioxo-1,2,3,4-tetrahydro-isoquinolin-6-yl}-benzoic acid], the IC50 in assay [1] (setting [11]) came to 0.09 µM; in assay [2] (setting [12]), 13.8 µM; in assay [3] (setting [13]), 18.5 µM.

As to `N#CCc1ccc(C=Cc2ccc3c(c2)C(=CNCc2ccc(O)c(O)c2)C(=O)NC3=O)cc1` [Example 805, [4-(2-{4-[(3,4-Dihydroxy-benzylamino)-methylene]-1,3-dioxo-1,2,3,4-tetrahydro-isoquinolin-6-yl}-vinyl)-phenyl]-acetonitrile], the IC50 in assay [1] (setting [11]) turned out to be 0.29 µM; in assay [2] (setting [12]) it was 23.1 µM; in assay [4] it was 21.9 µM; in assay [5] it was 13.8 µM; in assay [6] it was 36.3 µM; in assay [7], 33.9 µM.

As for `COc1ccc(CNC=C2C(=O)NC(=O)c3ccc(C=CCN4CC(=O)NC4=O)cc32)cc1O` [Example 826, 6-[3-(2,4-Dioxo-imidazolidin-1-yl)-propenyl]-4-[(3-hydroxy-4-methoxy-benzylamino)-methylene]-4H-isoquinoline-1,3-dione], the IC50 in assay [1] (setting [11]) was 0.11 µM; in assay [2] (setting [12]), 12.9 µM; in assay [4] it was over 50 µM; in assay [5] it was 36.9 µM; in assay [6], over 50 µM; in assay [7], over 50 µM.
